Like-named read-outs stand apart in the source and are kept apart here. Residues, ends and D or L forms follow the SMILES beside them. *: point of attachment. Biotin = O=C1N[C@H]2[C@H](CS[C@H]2CCCCC(=O)*)N1; X2 = O=C(CCN1C(=O)CC(*)C1=O)NCCc1ccc(O)c(O)c1; X1 = C[C@@H]1NC(=O)N[C@@H]1CCCCCC(=O)*
Assays:
PACAP receptor PAC1 = target: T1, PACAP receptor PAC1 (Homo sapiens, UniProt P41586); assay: PAC1 luminescence (GloSensor cAMP) assay of PACAP derivatives; assay type: cell-based
T1 construct: expressed in transfected cells; host or cells: CHO K1 cells stably transduced by lentivirus with PAC1 and the Glo22F cAMP luciferase
T1 sequence (P41586 21-468): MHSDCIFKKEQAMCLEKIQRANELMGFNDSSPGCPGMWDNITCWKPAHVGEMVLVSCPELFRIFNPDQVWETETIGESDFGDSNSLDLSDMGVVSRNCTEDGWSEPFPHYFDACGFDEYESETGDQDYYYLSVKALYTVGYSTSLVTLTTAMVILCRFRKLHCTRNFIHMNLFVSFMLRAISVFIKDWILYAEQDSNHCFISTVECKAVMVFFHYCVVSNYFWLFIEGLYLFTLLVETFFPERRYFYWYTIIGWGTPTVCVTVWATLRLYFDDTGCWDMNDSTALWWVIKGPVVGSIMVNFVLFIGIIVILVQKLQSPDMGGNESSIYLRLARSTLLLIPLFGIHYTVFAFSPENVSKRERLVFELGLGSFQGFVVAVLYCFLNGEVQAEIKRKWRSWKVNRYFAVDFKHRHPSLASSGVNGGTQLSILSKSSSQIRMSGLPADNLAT
Protocol: (Promega, Madison, WI). We generated a CHO K1 cell line expressing the required cAMP-dependent luciferase and PAC1 receptor. 24 h before the assay, 2500 cells per well were seeded in 100 µl F10 with 10% FBS in white opaque clear-bottom 96-well plates (Costar, Coppell, TX). […] Luminescence was measured for 30 min using a microtiter plate reader and evaluated after the signal reached a plateau (15 min).
Biotin (BT) and desthiobiotin (dBT) were incorporated as lysine sidechain-derivatized monomers in the synthesis; polyethylene glycol (PEG)-linked BT was incorporated as a BT-functionalized glutamine monomer spaced using a linker of four PEG units. […] Further BT-AVATar activation studies were performed using biotinylated bovine serum albumin (BSA, Sigma-Aldrich) containing 100 nM BT or biotinylated cells containing 150 nM BT (preparation see below) as analytes.
Addition of the maleimido functional group was achieved by reacting DA with N-succinimidyl 3-maleimidopropionate in anhydrous dimethylformamide and further purification using HPLC. The resulting functionalized neurotransmitter, DA-Mal, was further characterized by standard methods (Supplementary Methods and Supplementary Figs. 8 and 9). […] Dopamine sensitivity of the DA-AVATar was examined using freshly prepared DA (Sigma-Aldrich) stocks in PBS pH 7.4.

streptavidin (SA) = tested on: streptavidin (SA); set-up: method as in 2 sources, ref 21 = [21]; PMID 9601024; doi:10.1021/bi9803123; 21. Klumb LA Chu V Stayton PS Energetic roles of hydrogen bonds at the ureido oxygen binding pocket in the streptavidin−biotin complex Biochemistry 1998 37 7657 7663 10.1021/bi9803123 9601024 ||| ref 22 = [22]; PMID 7041971; doi:10.1021/bi00534a024; 22. Hofmann K Titus G Montibeller JA Finn FM Avidin binding of carboxyl-substituted biotin and analogues Biochemistry 1982 21 978 984 10.1021/bi00534a024 7041971; settings: cited from earlier work
[1] = CHO K1 cells expressing PAC1 and cAMP-dependent luciferase, no streptavidin, mean ± SD of duplicates, read-out: EC50 for PAC1 receptor activation in the absence of SA

With `CC[C@H](C)[C@H](NC(=O)CNC(=O)[C@H](CC(=O)O)NC(=O)[C@H](CO)NC(=O)[C@@H](N)Cc1c[nH]cn1)C(=O)N[C@@H](Cc1ccccc1)C(=O)N[C@H](C(=O)N[C@@H](CC(=O)O)C(=O)N[C@@H](CO)C(=O)N[C@@H](CSC1CC(=O)N(CCC(=O)NCCc2ccc(O)c(O)c2)C1=O)C(=O)N[C@@H](CO)C(=O)N[C@@H](CCCNC(=N)N)C(=O)N[C@@H](Cc1ccc(O)cc1)C(=O)N[C@@H](CCCNC(=N)N)C(=O)N[C@@H](CCCCN)C(=O)N[C@@H](CCC(N)=O)C(=O)N[C@@H](CCSC)C(=O)N[C@@H](C)C(=O)N[C@H](C(=O)N[C@@H](CSC1CC(=O)N(CCC(=O)NCCc2ccc(O)c(O)c2)C1=O)C(=O)N[C@@H](CCCCN)C(=O)N[C@@H](Cc1ccc(O)cc1)C(=O)N[C@@H](CC(C)C)C(=O)N[C@@H](C)C(=O)N[C@@H](C)C(=O)N[C@H](C(=O)N[C@@H](CC(C)C)C(=O)NCC(=O)N[C@@H](CCCCN)C(=O)N[C@@H](CCCNC(=N)N)C(=O)N[C@@H](Cc1ccc(O)cc1)C(=O)N[C@@H](CCCCN)C(=O)N[C@@H](CCC(N)=O)C(=O)N[C@@H](CCCNC(=N)N)C(=O)N[C@H](C(=O)N[C@@H](CCCCN)C(=O)N[C@@H](CC(N)=O)C(=O)N[C@@H](CCCCN)C(N)=O)C(C)C)C(C)C)C(C)C)[C@@H](C)O` (some centres unmarked) [PACAP-10,20-DA] (H-HSDGIFTDSC(X2)SRYRKQMAVC(X2)KYLAAVLGKRYKQRVKNK-NH2) the EC50 (PACAP receptor PAC1; DA conjugate, no IgG, SD of duplicates, read-out: EC50 for PAC1 receptor activation) was 2.5 ± 0.6 nM.
In the case of `C[C@@H]1NC(=O)N[C@@H]1CCCCCC(=O)O` [desthiobiotin], the “affinity for SA relative to biotin (lower)” value (streptavidin (SA)) is given as 10,000 fold.
In the case of `O=C(O)CCCC[C@@H]1SC[C@@H]2NC(=O)N[C@@H]21` [biotin], the “characteristic dissociation time of SA from biotin” value (streptavidin (SA)) is given as ~ 7 h.
`CC[C@H](C)[C@H](NC(=O)CNC(=O)[C@H](CC(=O)O)NC(=O)[C@H](CO)NC(=O)[C@@H](N)Cc1c[nH]cn1)C(=O)N[C@@H](Cc1ccccc1)C(=O)N[C@H](C(=O)N[C@@H](CC(=O)O)C(=O)N[C@@H](CO)C(=O)N[C@@H](CCCCNC(=O)CCCCC[C@H]1NC(=O)N[C@H]1C)C(=O)N[C@@H](CO)C(=O)N[C@@H](CCCNC(=N)N)C(=O)N[C@@H](Cc1ccc(O)cc1)C(=O)N[C@@H](CCCNC(=N)N)C(=O)N[C@@H](CCCCN)C(=O)N[C@@H](CCC(N)=O)C(=O)N[C@@H](CCSC)C(=O)N[C@@H](C)C(=O)N[C@H](C(=O)N[C@@H](CCCCNC(=O)CCCCC[C@H]1NC(=O)N[C@H]1C)C(=O)N[C@@H](CCCCN)C(=O)N[C@@H](Cc1ccc(O)cc1)C(=O)N[C@@H](CC(C)C)C(=O)N[C@@H](C)C(=O)N[C@@H](C)C(=O)N[C@H](C(=O)N[C@@H](CC(C)C)C(=O)NCC(=O)N[C@@H](CCCCN)C(=O)N[C@@H](CCCNC(=N)N)C(=O)N[C@@H](Cc1ccc(O)cc1)C(=O)N[C@@H](CCCCNC(=O)CCCCC[C@H]1NC(=O)N[C@H]1C)C(=O)N[C@@H](CCC(N)=O)C(=O)N[C@@H](CCCNC(=N)N)C(=O)N[C@H](C(=O)N[C@@H](CCCCN)C(=O)N[C@@H](CC(N)=O)C(=O)N[C@@H](CCCCN)C(N)=O)C(C)C)C(C)C)C(C)C)[C@@H](C)O` [PACAP-10,20,32-dBT] (H-HSDGIFTDSK(X1)SRYRKQMAVK(X1)KYLAAVLGKRYK(X1)QRVKNK-NH2) gave an EC50 (PACAP receptor PAC1; [1]) of 0.13 ± 0.002 nM.
`CC[C@H](C)[C@H](NC(=O)CNC(=O)[C@H](CC(=O)O)NC(=O)[C@H](CO)NC(=O)[C@@H](N)Cc1c[nH]cn1)C(=O)N[C@@H](Cc1ccccc1)C(=O)N[C@H](C(=O)N[C@@H](CC(=O)O)C(=O)N[C@@H](CO)C(=O)N[C@@H](CCCCNC(=O)CCCC[C@@H]1SC[C@@H]2NC(=O)N[C@@H]21)C(=O)N[C@@H](CO)C(=O)N[C@@H](CCCNC(=N)N)C(=O)N[C@@H](Cc1ccc(O)cc1)C(=O)N[C@@H](CCCNC(=N)N)C(=O)N[C@@H](CCCCN)C(=O)N[C@@H](CCC(N)=O)C(=O)N[C@@H](CCSC)C(=O)N[C@@H](C)C(=O)N[C@H](C(=O)N[C@@H](CCCCNC(=O)CCCC[C@@H]1SC[C@@H]2NC(=O)N[C@@H]21)C(=O)N[C@@H](CCCCN)C(=O)N[C@@H](Cc1ccc(O)cc1)C(=O)N[C@@H](CC(C)C)C(=O)N[C@@H](C)C(=O)N[C@@H](C)C(=O)N[C@H](C(=O)N[C@@H](CC(C)C)C(=O)NCC(=O)N[C@@H](CCCCN)C(=O)N[C@@H](CCCNC(=N)N)C(=O)N[C@@H](Cc1ccc(O)cc1)C(=O)N[C@@H](CCCCN)C(=O)N[C@@H](CCC(N)=O)C(=O)N[C@@H](CCCNC(=N)N)C(=O)N[C@H](C(=O)N[C@@H](CCCCN)C(=O)N[C@@H](CC(N)=O)C(=O)N[C@@H](CCCCN)C(N)=O)C(C)C)C(C)C)C(C)C)[C@@H](C)O` [PACAP-10,20-BT] (H-HSDGIFTDSK(Biotin)SRYRKQMAVK(Biotin)KYLAAVLGKRYKQRVKNK-NH2) gave an EC50 (PACAP receptor PAC1; [1]) of 0.061 ± 0.007 nM.
